Assay results reported in ChEMBL document CHEMBL5463723, “Data for DCP probe BIBO3304” (2023).

Experiments:
[1] = biological target: Muscarinic acetylcholine receptor (Rattus norvegicus) (UniProt P08482+P08483+P08485+P08911+P10980); assay: Activity against MUSCARIN/NS in the Eurofins Panlabs screen (BI) by Radioactive Assay; format: protein assay; settings: Compound concentration 10.0 uM
[2] = biological target: Sodium-dependent dopamine transporter (Homo sapiens) (UniProt Q01959); assay: dopamine transporter Eurofins-Cerep binding assay; settings: Compound concentration 10.0 uM
[3] = biological target: Type-1 angiotensin II receptor (Oryctolagus cuniculus) (UniProt P34976); assay: Activity against ATII/RB in the Eurofins Panlabs screen (BI) by Radioactive Assay; settings: Compound concentration 10.0 uM
[4] = biological target: Gamma-aminobutyric acid receptor subunit alpha-1 (Rattus norvegicus) (UniProt P62813); assay: Activity against GABAACL+ in the Eurofins Panlabs screen (BI) by Radioactive Assay; settings: Compound concentration 10.0 uM
Chain of Gamma-aminobutyric acid receptor subunit alpha-1 (Rattus norvegicus) (P62813 whole entry): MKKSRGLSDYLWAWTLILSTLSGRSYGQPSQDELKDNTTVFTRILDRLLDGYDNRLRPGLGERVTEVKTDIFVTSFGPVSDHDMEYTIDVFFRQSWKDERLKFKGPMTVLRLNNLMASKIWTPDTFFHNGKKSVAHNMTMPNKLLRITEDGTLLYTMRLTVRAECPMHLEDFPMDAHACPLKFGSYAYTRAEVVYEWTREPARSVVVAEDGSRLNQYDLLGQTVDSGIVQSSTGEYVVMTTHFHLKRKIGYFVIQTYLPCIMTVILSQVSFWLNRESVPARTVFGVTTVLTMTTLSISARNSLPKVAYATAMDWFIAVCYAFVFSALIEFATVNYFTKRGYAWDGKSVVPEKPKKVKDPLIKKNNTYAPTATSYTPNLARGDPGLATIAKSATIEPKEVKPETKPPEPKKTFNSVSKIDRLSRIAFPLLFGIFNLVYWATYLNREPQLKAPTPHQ

[5] = biological target: D(1A) dopamine receptor (Homo sapiens) (UniProt P21728); assay: D1 Eurofins-Cerep binding assay; design: ligand concentration 0.3 nM; settings: Compound concentration 10.0 uM
Chain of D(1A) dopamine receptor (Homo sapiens) (P21728 whole entry): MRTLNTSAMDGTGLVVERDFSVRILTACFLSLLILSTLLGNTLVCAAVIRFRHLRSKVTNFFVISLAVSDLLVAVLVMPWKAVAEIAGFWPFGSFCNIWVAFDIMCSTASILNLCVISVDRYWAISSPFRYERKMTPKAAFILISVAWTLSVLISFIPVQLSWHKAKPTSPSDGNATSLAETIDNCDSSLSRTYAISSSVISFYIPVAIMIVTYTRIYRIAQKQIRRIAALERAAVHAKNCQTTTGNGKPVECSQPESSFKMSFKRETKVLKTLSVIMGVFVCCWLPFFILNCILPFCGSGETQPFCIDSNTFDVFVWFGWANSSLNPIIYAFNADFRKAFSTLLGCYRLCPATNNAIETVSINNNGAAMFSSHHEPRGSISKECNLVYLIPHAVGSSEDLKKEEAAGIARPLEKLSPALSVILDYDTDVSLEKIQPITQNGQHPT

[6] = biological target: Histamine H2 receptor (Homo sapiens) (UniProt P25021); assay: H2 Eurofins-Cerep binding assay; design: ligand concentration 0.075 nM; settings: Compound concentration 10.0 uM
[7] = biological target: Neuronal acetylcholine receptor subunit beta-2 (Rattus norvegicus) (UniProt P12390); assay: Activity against NACH/CENT/R in the Eurofins Panlabs screen (BI) by Radioactive Assay; settings: Compound concentration 10.0 uM
[8] = biological target: Small conductance calcium-activated potassium channel protein 1 (Rattus norvegicus) (UniProt P70606); assay: Activity against K+/SKCA in the Eurofins Panlabs screen (BI) by Radioactive Assay; settings: Compound concentration 10.0 uM
[9] = biological target: 5-hydroxytryptamine receptor 1A (Homo sapiens) (UniProt P08908); assay: 5-HT1A Eurofins-Cerep binding assay; design: ligand concentration 0.5 nM; settings: Compound concentration 10.0 uM
[10] = biological target: Mu-type opioid receptor (Homo sapiens) (UniProt P35372); assay: mu (MOP) Eurofins-Cerep binding assay; design: ligand concentration 0.5 nM; settings: Compound concentration 10.0 uM
[11] = biological target: L-type calcium channel (dihydropyridine site), Cav1.2 alpha-1C (Rattus norvegicus, UniProt P22002); assay: Inhibitor of CA+/DHPSI/R in the Eurofins Cerep SafetyScreen44 (BI) by Radioactive Assay (Cerep_161); format: protein assay; design: scale not given: the % may be the effect or the level left; settings: rat brain, probe [3H](+)PN200-110, compound concentration 10 uM, read-out: % Ctrl
Chain of L-type calcium channel (dihydropyridine site), Cav1.2 alpha-1C (P22002 whole entry): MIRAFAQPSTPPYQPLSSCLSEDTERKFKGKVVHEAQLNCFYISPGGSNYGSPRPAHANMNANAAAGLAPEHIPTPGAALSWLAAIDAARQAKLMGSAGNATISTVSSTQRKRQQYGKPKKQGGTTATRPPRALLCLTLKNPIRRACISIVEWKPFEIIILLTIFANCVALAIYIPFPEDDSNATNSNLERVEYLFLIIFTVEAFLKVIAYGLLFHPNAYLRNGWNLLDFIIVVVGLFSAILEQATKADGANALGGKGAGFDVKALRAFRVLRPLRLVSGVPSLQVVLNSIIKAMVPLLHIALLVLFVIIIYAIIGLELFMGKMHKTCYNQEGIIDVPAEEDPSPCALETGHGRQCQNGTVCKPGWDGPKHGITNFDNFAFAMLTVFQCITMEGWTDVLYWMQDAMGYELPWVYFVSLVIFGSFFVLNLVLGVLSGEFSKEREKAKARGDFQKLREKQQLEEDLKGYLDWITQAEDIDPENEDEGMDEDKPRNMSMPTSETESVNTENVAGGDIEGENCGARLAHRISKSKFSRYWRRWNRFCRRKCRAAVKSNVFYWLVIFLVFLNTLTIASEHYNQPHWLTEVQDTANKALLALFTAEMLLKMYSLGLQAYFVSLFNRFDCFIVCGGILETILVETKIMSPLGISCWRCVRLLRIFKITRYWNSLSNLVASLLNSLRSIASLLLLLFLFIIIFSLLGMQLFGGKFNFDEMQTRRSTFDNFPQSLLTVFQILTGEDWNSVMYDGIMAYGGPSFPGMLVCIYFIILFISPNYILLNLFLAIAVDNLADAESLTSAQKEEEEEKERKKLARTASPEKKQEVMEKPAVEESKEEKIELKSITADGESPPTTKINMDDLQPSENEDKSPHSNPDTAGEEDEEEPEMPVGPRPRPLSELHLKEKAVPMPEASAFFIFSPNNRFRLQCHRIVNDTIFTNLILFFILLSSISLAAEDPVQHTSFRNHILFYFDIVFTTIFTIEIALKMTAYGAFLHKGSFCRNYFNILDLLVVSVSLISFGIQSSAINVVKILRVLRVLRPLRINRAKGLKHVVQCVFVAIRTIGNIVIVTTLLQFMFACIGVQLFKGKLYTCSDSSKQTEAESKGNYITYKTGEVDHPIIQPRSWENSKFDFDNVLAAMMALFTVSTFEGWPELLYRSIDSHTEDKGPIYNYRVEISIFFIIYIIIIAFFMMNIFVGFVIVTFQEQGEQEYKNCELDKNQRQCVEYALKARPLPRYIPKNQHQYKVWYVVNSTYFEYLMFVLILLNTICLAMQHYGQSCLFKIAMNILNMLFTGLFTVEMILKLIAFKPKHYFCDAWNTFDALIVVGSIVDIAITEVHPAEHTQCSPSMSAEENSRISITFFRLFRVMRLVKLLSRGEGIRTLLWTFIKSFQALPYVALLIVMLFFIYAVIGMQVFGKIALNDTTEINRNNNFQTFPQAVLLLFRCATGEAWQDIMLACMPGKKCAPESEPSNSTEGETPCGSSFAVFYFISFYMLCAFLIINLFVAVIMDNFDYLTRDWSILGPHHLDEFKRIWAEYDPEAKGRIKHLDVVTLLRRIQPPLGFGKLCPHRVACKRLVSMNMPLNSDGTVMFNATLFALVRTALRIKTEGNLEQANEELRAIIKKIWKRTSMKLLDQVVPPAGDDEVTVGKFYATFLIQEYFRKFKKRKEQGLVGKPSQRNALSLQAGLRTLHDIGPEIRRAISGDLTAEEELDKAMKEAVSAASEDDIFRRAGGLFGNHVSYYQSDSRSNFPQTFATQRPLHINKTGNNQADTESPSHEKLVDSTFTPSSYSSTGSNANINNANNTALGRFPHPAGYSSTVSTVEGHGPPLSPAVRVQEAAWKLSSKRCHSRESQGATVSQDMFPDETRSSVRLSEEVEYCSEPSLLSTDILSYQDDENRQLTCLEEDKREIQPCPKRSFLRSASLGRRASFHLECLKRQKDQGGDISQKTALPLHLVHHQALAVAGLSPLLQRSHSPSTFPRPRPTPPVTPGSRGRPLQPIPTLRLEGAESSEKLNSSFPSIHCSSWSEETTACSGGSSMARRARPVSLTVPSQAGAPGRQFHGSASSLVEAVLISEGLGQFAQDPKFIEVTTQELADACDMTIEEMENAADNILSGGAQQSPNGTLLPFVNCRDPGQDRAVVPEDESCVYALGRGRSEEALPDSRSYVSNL

[12] = biological target: Epidermal growth factor receptor (Homo sapiens) (UniProt P00533); assay: Activity against EGF/HU in the Eurofins Panlabs screen (BI) by Radioactive Assay; settings: Compound concentration 10.0 uM
Chain of Epidermal growth factor receptor (Homo sapiens) (P00533 whole entry, canonical isoform): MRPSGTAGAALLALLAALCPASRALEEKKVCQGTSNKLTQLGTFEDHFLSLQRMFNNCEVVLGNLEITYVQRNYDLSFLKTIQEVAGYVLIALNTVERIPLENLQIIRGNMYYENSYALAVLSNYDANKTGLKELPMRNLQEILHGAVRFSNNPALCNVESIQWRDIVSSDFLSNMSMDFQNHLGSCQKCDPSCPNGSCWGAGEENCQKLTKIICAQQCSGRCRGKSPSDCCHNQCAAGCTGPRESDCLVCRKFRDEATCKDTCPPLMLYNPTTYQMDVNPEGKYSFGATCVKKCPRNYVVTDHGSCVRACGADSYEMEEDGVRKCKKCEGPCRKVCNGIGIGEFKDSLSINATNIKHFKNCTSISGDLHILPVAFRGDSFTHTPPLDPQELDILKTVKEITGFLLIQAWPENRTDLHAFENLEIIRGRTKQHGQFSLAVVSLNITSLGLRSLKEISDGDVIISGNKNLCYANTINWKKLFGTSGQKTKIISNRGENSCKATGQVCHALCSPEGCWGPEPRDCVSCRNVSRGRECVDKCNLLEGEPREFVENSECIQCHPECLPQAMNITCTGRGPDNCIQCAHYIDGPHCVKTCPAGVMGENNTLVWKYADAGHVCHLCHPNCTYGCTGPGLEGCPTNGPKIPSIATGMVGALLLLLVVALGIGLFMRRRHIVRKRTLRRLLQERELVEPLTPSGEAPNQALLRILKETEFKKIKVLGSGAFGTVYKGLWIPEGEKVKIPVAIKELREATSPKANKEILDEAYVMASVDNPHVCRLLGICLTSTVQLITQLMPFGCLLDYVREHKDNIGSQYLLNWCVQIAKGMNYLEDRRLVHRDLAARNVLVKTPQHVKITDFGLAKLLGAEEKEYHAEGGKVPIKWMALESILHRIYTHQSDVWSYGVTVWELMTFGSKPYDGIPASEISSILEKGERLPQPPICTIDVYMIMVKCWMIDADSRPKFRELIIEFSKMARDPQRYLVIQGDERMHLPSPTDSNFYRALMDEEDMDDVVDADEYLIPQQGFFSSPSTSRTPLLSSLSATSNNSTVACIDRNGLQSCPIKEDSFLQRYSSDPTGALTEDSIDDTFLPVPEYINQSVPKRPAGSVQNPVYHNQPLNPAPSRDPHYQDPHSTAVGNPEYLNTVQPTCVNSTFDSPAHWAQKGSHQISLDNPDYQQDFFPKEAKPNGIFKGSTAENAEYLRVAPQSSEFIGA

[13] = biological target: ATP-sensitive inward rectifier potassium channel 1 isoform X1 (Mesocricetus auratus) (UniProt A0A1U8CU73); assay: Activity against K+/KATP/HA in the Eurofins Panlabs screen (BI) by Radioactive Assay; settings: Compound concentration 10.0 uM
[14] = biological target: Protein kinase C gamma type (Homo sapiens) (UniProt P05129); assay: Inhibitor of PKCGAMMA in the Eurofins Panlabs screen (BI) by Radioactive Assay; settings: Compound concentration 10.0 uM
[15] = biological target: 5-hydroxytryptamine receptor 3A (Homo sapiens) (UniProt P46098); assay: 5-HT3 Eurofins-Cerep binding assay; design: ligand concentration 0.5 nM; settings: Compound concentration 10.0 uM
[16] = biological target: Potassium voltage-gated channel subfamily A member 1 (Rattus norvegicus) (UniProt P10499); assay: Activity against K+/KA/R in the Eurofins Panlabs screen (BI) by Radioactive Assay; settings: Compound concentration 10.0 uM
[17] = biological target: Glutamate receptor 1 (Rattus norvegicus) (UniProt P19490); assay: Activity against AMPA/RA in the Eurofins Panlabs screen (BI); settings: Compound concentration 10.0 uM
[18] = biological target: Vasoactive intestinal peptide receptor 1 (Cavia porcellus) (UniProt A0A286XMQ0); assay: Activity against VIP1/GP in the Eurofins Panlabs screen (BI) by Radioactive Assay; settings: Compound concentration 10.0 uM
[19] = biological target: Adrenergic receptor alpha-2 (Rattus norvegicus) (UniProt P22086+P19328+P22909); assay: Activity against ALPHA2/R in the Eurofins Panlabs screen (BI) by Others; format: protein assay; settings: Compound concentration 10.0 uM
[20] = biological target: Kappa-type opioid receptor (Cavia porcellus) (UniProt P41144); assay: Activity against KAPPA/GP in the Eurofins Panlabs screen (BI) by Radioactive Assay; settings: Compound concentration 10.0 uM
[21] = biological target: Epidermal growth factor receptor (Homo sapiens) (UniProt P00533); assay: Inhibitor of EGFRTYRKIN in the Eurofins Panlabs screen (BI) by Fluorimetry; settings: Compound concentration 10.0 uM
[22] = biological target: Gamma-aminobutyric acid receptor subunit alpha-1 (Rattus norvegicus) (UniProt P62813); assay: Agonist activity in the Eurofins Panlabs screen (BI) against GABAA-AGSI/R by Scintillation counting; settings: Compound concentration 10.0 uM
[23] = biological target: Alpha-2A adrenergic receptor (Homo sapiens) (UniProt P08913); assay: Inhibitor of ALPHA2A/HU in the Eurofins Cerep SafetyScreen44 (BI) by Radioactive Assay (Cerep_13); settings: Compound concentration 10.0 uM
[24] = biological target: Cannabinoid receptor 2 (Homo sapiens) (UniProt P34972); assay: Activity against CB2/PERIPH/H in the Eurofins Cerep SafetyScreen44 (BI) by Radioactive Assay (Cerep_37); settings: Compound concentration 10.0 uM
[25] = biological target: Endothelin-1 receptor (Rattus norvegicus) (UniProt P26684); assay: Activity against ETA/R in the Eurofins Panlabs screen (BI) by Radioactive Assay; settings: Compound concentration 10.0 uM
[26] = biological target: D(1A) dopamine receptor (Rattus norvegicus) (UniProt P18901); assay: Activity against D1/R in the Eurofins Panlabs screen (BI) by Radioactive Assay; settings: Compound concentration 10.0 uM
[27] = biological target: 3-hydroxy-3-methylglutaryl-coenzyme A reductase (Rattus norvegicus) (UniProt P51639); assay: Inhibitor of HMGCOARED in the Eurofins Panlabs screen (BI) by Radioactive Assay; settings: Compound concentration 30.0 uM
[28] = biological target: Glucocorticoid receptor (Homo sapiens) (UniProt P04150); assay: GR Eurofins-Cerep binding assay; settings: Compound concentration 10.0 uM
Chain of Glucocorticoid receptor (Homo sapiens) (P04150 whole entry): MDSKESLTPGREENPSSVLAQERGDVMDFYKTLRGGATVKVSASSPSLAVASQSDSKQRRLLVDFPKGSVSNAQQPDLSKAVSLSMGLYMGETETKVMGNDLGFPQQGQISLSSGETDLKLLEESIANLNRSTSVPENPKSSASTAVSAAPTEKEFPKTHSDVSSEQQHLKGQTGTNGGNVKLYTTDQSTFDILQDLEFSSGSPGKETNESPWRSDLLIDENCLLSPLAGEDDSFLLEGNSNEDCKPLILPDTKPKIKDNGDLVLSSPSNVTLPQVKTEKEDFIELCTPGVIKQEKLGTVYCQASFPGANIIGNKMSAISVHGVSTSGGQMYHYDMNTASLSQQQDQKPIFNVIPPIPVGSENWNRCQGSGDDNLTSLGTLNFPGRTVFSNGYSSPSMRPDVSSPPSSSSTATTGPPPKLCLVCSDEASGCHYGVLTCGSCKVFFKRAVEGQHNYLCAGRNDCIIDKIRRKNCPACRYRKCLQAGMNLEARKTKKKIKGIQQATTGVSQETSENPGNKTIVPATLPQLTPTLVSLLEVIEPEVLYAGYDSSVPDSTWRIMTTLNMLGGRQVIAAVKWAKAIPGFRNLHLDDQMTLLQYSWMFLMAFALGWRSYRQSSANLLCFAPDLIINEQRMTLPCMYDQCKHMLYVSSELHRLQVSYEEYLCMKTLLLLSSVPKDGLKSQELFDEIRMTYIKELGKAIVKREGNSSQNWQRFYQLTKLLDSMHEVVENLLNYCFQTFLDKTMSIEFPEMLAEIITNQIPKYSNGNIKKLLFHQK

[29] = biological target: Metabotropic glutamate receptor (Rattus norvegicus) (UniProt P31424+P70579+P31423+P31421+P31422+P35349+P35400+P23385); assay: Activity against GLUTAMAT/R in the Eurofins Panlabs screen (BI) by Radioactive Assay; format: protein assay; settings: Compound concentration 10.0 uM
[30] = biological target: cGMP-inhibited 3',5'-cyclic phosphodiesterase 3A (Homo sapiens) (UniProt Q14432); assay: Inhibitor of PDE3A in the Eurofins Cerep SafetyScreen44 (BI) by HTRF-homogeneous time resolved fluoresce (Cerep_4072); settings: Compound concentration 10.0 uM
[31] = biological target: Glucocorticoid receptor (Homo sapiens) (UniProt P04150); assay: Activity against GCORTIC/H in the Eurofins Panlabs screen (BI) by Radioactive Assay; settings: Compound concentration 10.0 uM
[32] = biological target: Transmembrane protein 97 (Cavia porcellus) (UniProt H0V073); assay: Activity against SIGMA2/GP in the Eurofins Panlabs screen (BI) by Radioactive Assay; settings: Compound concentration 10.0 uM
[33] = biological target: D(1A) dopamine receptor (Homo sapiens) (UniProt P21728); assay: Activity against D1/HU in the Eurofins Panlabs screen (BI) by Radioactive Assay; settings: Compound concentration 10.0 uM
[34] = biological target: G_PROTEIN_RECEP_F1_2 domain-containing protein (Cavia porcellus) (UniProt A0A286XTF2); assay: Activity against DELTA/GP in the Eurofins Panlabs screen (BI) by Radioactive Assay; settings: Compound concentration 10.0 uM
[35] = biological target: Insulin receptor (Rattus norvegicus) (UniProt P15127); assay: Activity against INSULIN/R in the Eurofins Panlabs screen (BI) by Radioactive Assay; settings: Compound concentration 10.0 uM
[36] = biological target: Glutamate NMDA receptor (Rattus norvegicus) (UniProt P35439+Q00959+Q00960+Q00961+Q62645+Q8VHN2+Q9R1M7); assay: Inhibitor of NMDA/R in the Eurofins Cerep SafetyScreen44 (BI) by Radioactive Assay (Cerep_66); format: protein-complex assay; settings: Compound concentration 10.0 uM
Homo sapiens = organism: Homo sapiens; assay: Agonist activity in the Eurofins Cerep SafetyScreen44 (BI) against N_NEURO_A4B2 by Radioligand Binding (Cerep_3029); format: protein-complex assay; settings: Compound concentration 10.0 uM
[37] = biological target: Polyunsaturated fatty acid 5-lipoxygenase (Homo sapiens) (UniProt P09917); assay: Activity against 5LO in the Eurofins Panlabs screen (BI) by Radioactive Assay; settings: Compound concentration 30.0 uM

- residual activity [1]: 87%
- residual activity [2]: 79%
- residual activity [3]: 99%
- residual activity [4]: 84%
- residual activity [5]: 97%
- residual activity [6]: 117%
- residual activity [7]: 98%
- residual activity [8]: 119%
- residual activity [9]: 56%
- residual activity [10]: 71%
- residual activity [12]: 94%
- residual activity [13]: 76%
- residual activity [14]: 92%
- residual activity [15]: 91%
- residual activity [16]: 99%
- residual activity [17]: 96%
- residual activity [18]: 88%
- residual activity [19]: 96%
- residual activity [20]: 105%
- residual activity [21]: 83%
- residual activity [22]: 104%
- residual activity [25]: 88%
- residual activity [26]: 103%
- residual activity [27]: 98%
- residual activity [28]: 98%
- residual activity [29]: 95%
- residual activity [31]: 86%
- residual activity [32]: 109%
- residual activity [33]: 95%
- residual activity [34]: 80%
- residual activity [35]: 98%
- residual activity [37]: 97%
Structure (SMILES): N=C(N)NCCC[C@@H](NC(=O)C(c1ccccc1)c1ccccc1)C(=O)NCc1ccc(CNC(N)=O)cc1
- activity at 10 µM [11]: 70% (not active)
- residual activity [23]: 93%
- residual activity [24]: 91%
- residual activity [30]: 84%
- residual activity [36]: 109%
- residual activity (Homo sapiens): 110%
